# Molecular target: T1, Human thrombin (Homo sapiens, UniProt P00734)
# T1 construct: purchased Haematologic Technologies Inc
# Experiment: Inhibition of the protease activity of thrombin (chromogenic substrate S-2238)
# Format: biochemical
# Details: Table C; 3 nM thrombin, 125 μM S-2238, 10 min pre-incubation, RT
row,SMILES,IC50 [nM]
1,"O=C(c1ccc(Cl)cc1)n1nc(-c2cccnc2)nc1NCc1ccc(F)cc1 [Cmpd 338, 1-[(4-chlorophenyl)carbonyl]-N-[(4-fluorophenyl)methyl]-3-(pyridin-3-yl)-1H-1,2,4-triazol-5-amine]",< 100
2,"Cc1ccc(C(=O)n2nc(-c3cccnc3)nc2N)cc1 [Cmpd 339, 1-[(4-methylphenyl)carbonyl]-3-(pyridin-3-yl)-1H-1,2,4-triazol-5-amine]",100 to 1000
3,"CCCC(=O)n1nc(-c2cccnc2)nc1NCc1cccs1 [Cmpd 342, 1-[3-(pyridin-3-yl)-5-[(thiophen-2-ylmethyl)amino]-1H-1,2,4-triazol-1-yl]butan-1-one]",< 100
4,"CCC(=O)n1nc(-c2ccc(F)cc2)nc1NCc1ccccc1 [Cmpd 345, 1-[5-(benzylamino)-3-(4-fluorophenyl)-1H-1,2,4-triazol-1-yl]propan-1-one]",> 1000
5,"CCC(=O)n1nc(-c2ccco2)nc1NCc1ccccc1 [Cmpd 348, 1-[5-(benzylamino)-3-(furan-2-yl)-1H-1,2,4-triazol-1-yl]propan-1-one]",< 100
6,"CC(C)C(=O)n1nc(-c2cccnc2)nc1NCc1ccccc1 [Cmpd 349, 1-[5-(benzylamino)-3-(pyridin-3-yl)-1H-1,2,4-triazol-1-yl]-2-methylpropan-1-one]",< 100
7,"CCC(=O)n1nc(-c2cccnc2)nc1NCc1ccccc1 [Cmpd 351, 1-[5-(benzylamino)-3-(pyridin-3-yl)-1H-1,2,4-triazol-1-yl]propan-1-one]",< 100
8,"CCC(=O)n1nc(-c2cccs2)nc1NCc1ccccc1 [Cmpd 352, 1-[5-(benzylamino)-3-(thiophen-2-yl)-1H-1,2,4-triazol-1-yl]propan-1-one]",< 100
9,"O=C(Cc1ccccc1)n1nc(-c2ccccc2)nc1NCc1ccccc1 [Cmpd 353, 1-[5-(benzylamino)-3-phenyl-1H-1,2,4-triazol-1-yl]-2-phenylethan-1-one]",< 100
10,"O=C(CCc1ccccc1)n1nc(-c2ccccc2)nc1NCc1ccccc1 [Cmpd 354, 1-[5-(benzylamino)-3-phenyl-1H-1,2,4-triazol-1-yl]-3-phenylpropan-1-one]",> 1000
11,"CCC(=O)n1nc(-c2ccccc2)nc1NCc1ccccc1 [Cmpd 355, 1-[5-(benzylamino)-3-phenyl-1H-1,2,4-triazol-1-yl]propan-1-one]",100 to 1000
12,"O=C(c1ccccc1)n1nc(-c2cccnc2)nc1NCc1ccc(F)cc1 [Cmpd 356, 1-benzoyl-N-[(4-fluorophenyl)methyl]-3-(pyridin-3-yl)-1H-1,2,4-triazol-5-amine]",< 100
13,"COc1ccc(CNc2nc(-c3cccnc3)nn2C(=O)c2ccccc2)cc1 [Cmpd 357, 1-benzoyl-N-[(4-methoxyphenyl)methyl]-3-(pyridin-3-yl)-1H-1,2,4-triazol-5-amine]",100 to 1000
14,"O=C(c1ccccc1)n1nc(-c2ccccc2)nc1NCc1ccccc1 [Cmpd 359, 1-benzoyl-N-benzyl-3-phenyl-1H-1,2,4-triazol-5-amine]",< 100
15,"CCCC(=O)n1nc(-c2cccnc2)nc1NCc1ccco1 [Cmpd 362, 1-5-[(furan-2-ylmethyl)amino]-3-(pyridin-3-yl)-1H-1,2,4-triazol-1-ylbutan-1-one]",< 100
16,"CCC(=O)n1nc(-c2cccnc2)nc1NCc1ccco1 [Cmpd 364, 1-5-[(furan-2-ylmethyl)amino]-3-(pyridin-3-yl)-1H-1,2,4-triazol-1-ylpropan-1-one]",100 to 1000
17,"O=C(Nc1n[nH]c(-c2ccco2)n1)c1ccccc1F [Cmpd 365, 2-fluoro-N-[5-(furan-2-yl)-1H-1,2,4-triazol-3-yl]benzamide]",> 1000
18,"Cc1ccc(CNc2nc(-c3cccnc3)nn2C(=O)C(C)C)cc1 [Cmpd 366, 2-methyl-1-(5-[(4-methylphenyl)methyl]amino-3-(pyridin-3-yl)-1H-1,2,4-triazol-1-yl)propan-1-one]",< 100
19,"COc1ccccc1C(=O)n1nc(-c2ccco2)nc1SC [Cmpd 367, 3-(furan-2-yl)-1-[(2-methoxyphenyl)carbonyl]-5-(methylsulfanyl)-1H-1,2,4-triazole]",< 100
20,"O=C(c1cccnc1)n1nc(-c2ccco2)nc1NCc1cccs1 [Cmpd 368, 3-(furan-2-yl)-1-[(pyridin-3-yl)carbonyl]-N-(thiophen-2-ylmethyl)-1H-1,2,4-triazol-5-amine]",< 100
21,"CS(=O)(=O)n1nc(-c2ccco2)nc1NCc1cccs1 [Cmpd 369, 3-(furan-2-yl)-1-methanesulfonyl-N-(thiophen-2-ylmethyl)-1H-1,2,4-triazol-5-amine]",> 1000

# More lines, now with the values ahead:
row,IC50 [nM],SMILES
1,> 1000,"COc1ccccc1C(=O)n1nc(-c2ccccc2)nc1N [Cmpd 334, 1-[(2-methoxyphenyl)carbonyl]-3-phenyl-1H-1,2,4-triazol-5-amine]"
2,> 1000,"O=S(=O)(c1ccc(Cl)cc1)n1nc(-c2cccnc2)nc1NCc1cccs1 [Cmpd 336, 1-[(4-chlorobenzene)sulfonyl]-3-(pyridin-3-yl)-N-(thiophen-2-ylmethyl)-1H-1,2,4-triazol-5-amine]"
3,> 1000,"Nc1nc(C(=O)N2CCOCC2)nn1S(=O)(=O)c1ccc(Cl)cc1 [Cmpd 337, 1-[(4-chlorobenzene)sulfonyl]-3-[(morpholin-4-yl)carbonyl]-1H-1,2,4-triazol-5-amine]"
4,100 to 1000,"COc1ccc(CNc2nc(-c3cccnc3)nn2C(=O)c2ccco2)cc1 [Cmpd 340, 1-[(furan-2-yl)carbonyl]-N-[(4-methoxyphenyl)methyl]-3-(pyridin-3-yl)-1H-1,2,4-triazol-5-amine]"
5,> 1000,"CCC(=O)n1nc(-c2ccco2)nc1SC [Cmpd 341, 1-[3-(furan-2-yl)-5-(methylsulfanyl)-1H-1,2,4-triazol-1-yl]propan-1-one]"
6,< 100,"CC(=O)n1nc(-c2cccnc2)nc1NCc1cccs1 [Cmpd 343, 1-[3-(pyridin-3-yl)-5-[(thiophen-2-ylmethyl)amino]-1H-1,2,4-triazol-1-yl]ethan-1-one]"
7,< 100,"O=C(Cc1ccccc1)n1nc(-c2ccco2)nc1NCc1ccccc1 [Cmpd 346, 1-[5-(benzylamino)-3-(furan-2-yl)-1H-1,2,4-triazol-1-yl]-2-phenylethan-1-one]"
8,< 100,"O=C(CCc1ccccc1)n1nc(-c2ccco2)nc1NCc1ccccc1 [Cmpd 347, 1-[5-(benzylamino)-3-(furan-2-yl)-1H-1,2,4-triazol-1-yl]-3-phenylpropan-1-one]"
9,< 100,"CC(C)CC(=O)n1nc(-c2cccnc2)nc1NCc1ccccc1 [Cmpd 350, 1-[5-(benzylamino)-3-(pyridin-3-yl)-1H-1,2,4-triazol-1-yl]-3-methylbutan-1-one]"
10,< 100,"O=C(c1ccccc1)n1nc(-c2ccco2)nc1NCc1ccccc1 [Cmpd 358, 1-benzoyl-N-benzyl-3-(furan-2-yl)-1H-1,2,4-triazol-5-amine]"
11,> 1000,"CS(=O)(=O)n1nc(C(=O)N2CCOCC2)nc1N [Cmpd 360, 1-methanesulfonyl-3-[(morpholin-4-yl)carbonyl]-1H-1,2,4-triazol-5-amine]"
12,< 100,"CC(C)C(=O)n1nc(-c2cccnc2)nc1NCc1ccco1 [Cmpd 361, 1-5-[(furan-2-ylmethyl)amino]-3-(pyridin-3-yl)-1H-1,2,4-triazol-1-yl-2-methylpropan-1-one]"
13,< 100,"CC(=O)n1nc(-c2cccnc2)nc1NCc1ccco1 [Cmpd 363, 1-5-[(furan-2-ylmethyl)amino]-3-(pyridin-3-yl)-1H-1,2,4-triazol-1-ylethan-1-one]"
